Source: article PMC4612780, “Divergent Inhibitor Susceptibility among Airway Lumen-Accessible Tryptic Proteases” (PLoS ONE, 2015)

Columns and labels:
Assay in all cases: chromogenic hydrolysis of QAR, […] nm, initial rates
Type in all cases: biochemical
[1] = target: T1, β-tryptase; human lung (β) tryptase; settings: 1 mM QAR, pH 7.6, 120 mM NaCl, 0.05% Tween 20, 100 ug/ml heparin, 37 C, tryptase 0.70 nM
T1 construct: gene TPSAB1; native soluble tetramer from human lung (EMD-Millipore)

matriptase [2] = target: T2, matriptase (Homo sapiens, UniProt Q9Y5Y6); settings: 1 mM QAR, pH 7.6, 120 mM NaCl, 0.05% Tween 20, 100 ug/ml heparin, 37 C, matriptase 2.4 nM
T2 construct: gene ST14
T2 sequence (Q9Y5Y6 615-855 limits assumed): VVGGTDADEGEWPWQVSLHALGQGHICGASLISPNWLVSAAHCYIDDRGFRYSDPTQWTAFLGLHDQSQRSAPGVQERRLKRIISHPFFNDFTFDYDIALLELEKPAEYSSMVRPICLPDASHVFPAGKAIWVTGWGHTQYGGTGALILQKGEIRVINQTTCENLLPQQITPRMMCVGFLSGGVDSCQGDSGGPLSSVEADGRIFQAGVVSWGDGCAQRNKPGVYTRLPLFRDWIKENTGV

[3] = target: T3, HAT; airway trypsin-like protease (Homo sapiens, UniProt O60235); settings: 1 mM QAR, pH 7.6, 120 mM NaCl, 0.05% Tween 20, 100 ug/ml heparin, 37 C, HAT 0.72 nM
T3 construct: gene TMPRSS11D; recombinant soluble catalytic domain (R&D Systems)

matriptase [4] = target: T2, matriptase; settings: 1 mM QAR, pH 7.6, 120 mM NaCl, 0.05% Tween 20, 100 ug/ml heparin, 37 C; matriptase 2.4 nM; unreliable (beyond tested range 0.24-1200 uM)
[5] = target: T3, HAT; airway trypsin-like protease; settings: 1 mM QAR, pH 7.6, 120 mM NaCl, 0.05% Tween 20, 100 ug/ml heparin, 37 C; HAT 0.72 nM; unreliable (beyond tested range 1.6-20 uM)
prostasin = target: T4, prostasin (Homo sapiens, UniProt Q16651); settings: 1 mM QAR, pH 7.6, 120 mM NaCl, 0.05% Tween 20, 100 ug/ml heparin, 37 C, prostasin 80 nM
T4 construct: gene PRSS8; recombinant soluble catalytic domain (R&D Systems)
T4 sequence (Q16651 33-322 limits assumed): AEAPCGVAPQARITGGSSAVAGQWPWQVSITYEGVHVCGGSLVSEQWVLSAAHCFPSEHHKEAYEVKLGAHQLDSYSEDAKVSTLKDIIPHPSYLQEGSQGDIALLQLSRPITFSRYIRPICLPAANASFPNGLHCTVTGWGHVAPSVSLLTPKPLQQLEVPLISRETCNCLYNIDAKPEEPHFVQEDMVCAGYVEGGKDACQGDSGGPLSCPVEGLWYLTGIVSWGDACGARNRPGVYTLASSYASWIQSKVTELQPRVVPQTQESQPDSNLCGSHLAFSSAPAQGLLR

T3 sequence (O60235 187-418 limits assumed): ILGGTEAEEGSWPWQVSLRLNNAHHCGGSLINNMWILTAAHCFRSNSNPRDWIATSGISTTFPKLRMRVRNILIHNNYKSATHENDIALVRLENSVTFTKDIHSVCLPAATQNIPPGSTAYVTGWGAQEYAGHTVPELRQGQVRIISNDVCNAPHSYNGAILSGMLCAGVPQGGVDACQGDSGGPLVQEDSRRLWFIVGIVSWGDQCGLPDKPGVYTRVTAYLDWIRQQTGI

N=C(N)c1ccc2[nH]c(Cc3nc4ccc(C(=N)N)cc4[nH]3)nc2c1 [BABIM, bis(5-amidino-2-benzimidazolyl)methane]
Tryptase [1]: 108 [78, 149] [inhibitor]/[enzyme] ratio (dimensionless)
Matriptase (matriptase [2]): 0.98 [0.87, 1.11] [inhibitor]/[enzyme] ratio (dimensionless)
HAT ([3]; brackets 95% CI): 71 [48, 105] [inhibitor]/[enzyme] ratio (dimensionless)

N=C(N)c1ccccc1 [benzamidine]
Tryptase [1]: 4.7e4 [3.4e4, 6.5e4] [inhibitor]/[enzyme] ratio (dimensionless)
Matriptase (matriptase [4]): 1.1e6 [9.4e5, 1.2e6] [inhibitor]/[enzyme] ratio (dimensionless)
HAT [5]: 1.4e6 [2.0e5, 9.6e6] [inhibitor]/[enzyme] ratio (dimensionless)

CN(C)C(=O)COC(=O)Cc1ccc(OC(=O)c2ccc(NC(=N)N)cc2)cc1 [camostat]
Prostasin (prostasin; covalent (acyl intermediate)): 14 [7.7, 25] [inhibitor]/[enzyme] ratio (dimensionless)
Tryptase ([1]; covalent (acyl intermediate)): 5.2 [3.7, 7.2] [inhibitor]/[enzyme] ratio (dimensionless)
Matriptase (matriptase [2]; covalent (acyl intermediate)): 96 [80, 115] [inhibitor]/[enzyme] ratio (dimensionless)
HAT ([3]; covalent (acyl intermediate)): 20 [16, 24] [inhibitor]/[enzyme] ratio (dimensionless)

N=C(N)Nc1ccc(C(=O)Oc2ccc3cc(C(=N)N)ccc3c2)cc1 [nafamostat]
Prostasin (prostasin): 11 [5.6, 20] [inhibitor]/[enzyme] ratio (dimensionless)
Tryptase ([1]; covalent, suicide substrate, near-stoichiometric): 0.44 [0.29, 0.67] [inhibitor]/[enzyme] ratio (dimensionless)
HAT [3]: 191 [154, 239] [inhibitor]/[enzyme] ratio (dimensionless)
